Laboratory results: PubChem BioAssay (NCI)
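All cell lines were grown in 96-well plates and treated with compound for 48 hours. Here, GI50 denotes the concentration required for 50% inhibition of growth. TGI is the concentration that stops growth completely.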

How the values were obtained:
Assay in all cases: NCI tumour cell line growth inhibition, 48 h
[1] = test system: SK-OV-3 ovarian
[2] = test system: MALME-3M melanoma
[3] = test system: A498 renal
[4] = test system: SK-MEL-2 melanoma
[5] = test system: RXF 393 renal
[6] = test system: DU-145 prostate
[7] = test system: SF-539 CNS
[8] = test system: NCI-H522 lung
[9] = test system: HL-60(TB) leukemia
[10] = test system: SNB-19 CNS
[11] = test system: SR leukemia
[12] = test system: CAKI-1 renal
[13] = test system: OVCAR-8 ovarian
[14] = test system: MCF7 breast
[15] = test system: OVCAR-4 ovarian
[16] = test system: UACC-62 melanoma
[17] = test system: K-562 leukemia
[18] = test system: HCT-15 colon
[19] = test system: NCI/ADR-RES ovarian
[20] = test system: CCRF-CEM leukemia
[21] = test system: HT29 colon
[22] = test system: OVCAR-5 ovarian
[23] = test system: SK-MEL-5 melanoma
[24] = test system: BT-549 breast
[25] = test system: HCT-116 colon
[26] = test system: LOX IMVI melanoma
[27] = test system: 786-0 renal
[28] = test system: KM12 colon
[29] = test system: T-47D breast
[30] = test system: A549 NSCLC
[31] = test system: UO-31 renal
[32] = test system: HOP-92 NSCLC
[33] = test system: SF-295 CNS
[34] = test system: U251 CNS
[35] = test system: OVCAR-3 ovarian
[36] = test system: SW-620 colon
[37] = test system: PC-3 prostate
[38] = test system: HOP-62 NSCLC
[39] = test system: MOLT-4 leukemia
[40] = test system: NCI-H226 lung
[41] = test system: RPMI-8226 leukemia
[42] = test system: ACHN renal
[43] = test system: MDA-MB-231 breast
[44] = test system: HS 578T breast
[45] = test system: MDA-MB-435
[46] = test system: SN12C renal
[47] = test system: M14 melanoma
[48] = test system: NCI-H460 lung
[49] = test system: UACC-257 melanoma
[50] = test system: TK-10 renal
[51] = test system: COLO 205 colon
[52] = test system: NCI-H23 lung
[53] = test system: SK-MEL-28 melanoma
[54] = test system: SF-268 CNS
[55] = test system: IGROV1 ovarian
[56] = test system: SNB-75 CNS
[57] = test system: HCC-2998 colon

## COc1ccc(-c2nsc3c2NC(=O)CC3c2cccc(Cl)c2)cc1 (centres undefined)
[1]
  GI50: 3.31 µM
  TGI: > 100 µM
[2]
  GI50: 6.59 µM
  TGI: > 100 µM
[3]
  GI50: 1.34 µM
  TGI: 8.1 µM
[4]
  GI50: 0.878 µM
  TGI: 9.93 µM
[5]
  GI50: 2.57 µM
  TGI: 33 µM
[6]
  GI50: 3.3 µM
  TGI: > 100 µM
[7]
  GI50: 1.75 µM
  TGI: 6.06 µM
[8]
  GI50: 0.766 µM
  TGI: 5.99 µM
[9]
  GI50: 2.28 µM
  TGI: > 27.6 µM
[10]
  GI50: 5.44 µM
  TGI: > 100 µM
[11]
  GI50: 0.519 µM
  TGI: > 100 µM
[12]
  GI50: 0.981 µM
  TGI: 70.1 µM
[13]
  GI50: 4.35 µM
  TGI: > 100 µM
[14]
  GI50: 0.809 µM
  TGI: > 100 µM
[15]
  GI50: 7.62 µM
  TGI: > 100 µM
[16]
  GI50: 2.31 µM
  TGI: > 100 µM
[17]
  GI50: 0.399 µM
  TGI: > 100 µM
[18]
  GI50: 0.646 µM
  TGI: > 100 µM
[19]
  GI50: 0.604 µM
  TGI: > 100 µM
[20]
  GI50: 2.44 µM
  TGI: > 100 µM
[21]
  GI50: 0.377 µM
  TGI: 4.91 µM
[22]
  GI50: 5.3 µM
  TGI: > 100 µM
[23]
  GI50: 1.38 µM
  TGI: 51.6 µM
[24]
  GI50: 7.51 µM
  TGI: > 100 µM
[25]
  GI50: 0.83 µM
  TGI: > 100 µM
[26]
  GI50: 5.57 µM
  TGI: > 100 µM
[27]
  GI50: 9.39 µM
  TGI: > 100 µM
[28]
  GI50: 0.743 µM
  TGI: > 100 µM
[29]
  GI50: 3.54 µM
  TGI: > 100 µM
[30]
  GI50: 0.987 µM
  TGI: > 100 µM
[31]
  GI50: 5.22 µM
  TGI: > 100 µM
[32]
  GI50: 1.09 µM
  TGI: 33.6 µM
[33]
  GI50: 1.99 µM
  TGI: 13.5 µM
[34]
  GI50: 2.33 µM
  TGI: > 100 µM
[35]
  GI50: 1.74 µM
  TGI: > 29 µM
[36]
  GI50: 0.497 µM
  TGI: > 100 µM
[37]
  GI50: 2.12 µM
  TGI: > 100 µM
[38]
  GI50: 4.04 µM
  TGI: 98.1 µM
[39]
  GI50: 4.11 µM
  TGI: > 100 µM
[40]
  GI50: 10.8 µM
  TGI: > 100 µM
[41]
  GI50: 3.6 µM
  TGI: > 100 µM
[42]
  GI50: 7.5 µM
  TGI: > 100 µM
[43]
  GI50: 2.37 µM
  TGI: > 100 µM
[44]
  GI50: 2.98 µM
  TGI: > 65.4 µM
[45]
  GI50: 0.226 µM
  TGI: 0.917 µM
[46]
  GI50: > 22.8 µM
  TGI: > 100 µM
[47]
  GI50: 1.46 µM
  TGI: > 100 µM
[48]
  GI50: 1.22 µM
  TGI: > 100 µM
[49]
  GI50: 10.8 µM
  TGI: > 100 µM
[50]
  GI50: 3.48 µM
  TGI: > 100 µM
[51]
  GI50: 0.771 µM
  TGI: > 42.4 µM
[52]
  GI50: 4.62 µM
  TGI: > 100 µM
[53]
  GI50: 4.54 µM
  TGI: > 100 µM
[54]
  GI50: 8.04 µM
  TGI: > 100 µM
[55]
  GI50: 3.33 µM
  TGI: > 100 µM
[56]
  GI50: 1.53 µM
  TGI: 7.46 µM
[57]
  GI50: 11.5 µM
  TGI: > 100 µM
